Molecular target: T1, Glycogen synthase kinase-3β (GSK3β) (Homo sapiens, UniProt P49841)
T1 construct: gene GSK3B
Test: ADP-Glo luminescent kinase assay, nine-point dose curve
Type: biochemical

T1 sequence (P49841 whole entry): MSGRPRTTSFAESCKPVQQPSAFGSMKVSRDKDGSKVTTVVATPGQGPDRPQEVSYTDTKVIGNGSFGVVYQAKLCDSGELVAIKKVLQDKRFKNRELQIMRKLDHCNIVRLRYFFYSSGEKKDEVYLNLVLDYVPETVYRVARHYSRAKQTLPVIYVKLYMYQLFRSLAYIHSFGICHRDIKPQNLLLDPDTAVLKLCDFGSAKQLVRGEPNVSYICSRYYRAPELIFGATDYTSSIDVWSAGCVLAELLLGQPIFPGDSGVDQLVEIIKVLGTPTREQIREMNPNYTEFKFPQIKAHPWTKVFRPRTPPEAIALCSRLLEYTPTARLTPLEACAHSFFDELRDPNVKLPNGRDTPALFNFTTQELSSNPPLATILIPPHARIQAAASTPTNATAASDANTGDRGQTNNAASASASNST

Row | SMILES | IC50
1 | COc1cccc(-n2c(=S)sc3c(=O)[nH]c(SCC(=O)Nc4cccc(Cl)c4)nc32)c1 [Cpd22] | 15.5 µM
2 | CC(C)(C)[C@H]1CCc2[nH]nc(C(=O)NC3CC3)c2C1 [Cpd49] | 9.34 µM

Reference: paper PMC7517831, “Integrating Machine Learning-Based Virtual Screening With Multiple Protein Structures and Bio-Assay Evaluation for Discovery of Novel GSK3β Inhibitors” (Frontiers in Pharmacology, 2020)
